Legend:
Assay in all cases: relative viability (nuclei count vs DMSO), 5 days (fraction); higher = more cells survive
[1] = compound: O=C(CCCCCCNC(=O)c1cnc(N(c2ccccc2)c2ccccc2)nc1)NO [Ricolinostat] + CS(=O)(=O)N1CCN(Cc2cc3nc(-c4cccc5[nH]ncc45)nc(N4CCOCC4)c3s2)CC1 [Pictilisib] (partner 1 µM)
How it was run: (§1)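 The day after seeding in 1536-well plates, lung cancer cell lines were treated by pin tool with a single drug, or with a fixed anchor-drug dose together with five library-drug doses (not always all listed) in √10 steps. After 5 days, a combined fix-and-stain solution (final 0.05% Triton X-100, 1% formaldehyde, 1 ug/ml Hoechst) was added. Nuclei counted on 4× images gave relative viability as treated counts over vehicle counts, reported as the median of duplicate plates.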

TGX 221 + Decitabine = compound: CC1=CN2C(=O)C=C(N=C2C(=C1)C(C)NC3=CC=CC=C3)N4CCOCC4 [TGX 221] + Nc1ncn([C@H]2C[C@H](O)[C@@H](CO)O2)c(=O)n1 [Decitabine] (partner 2 µM)
How it was run: as §1

[2] = compound: O=C(CCCCCCNC(=O)c1cnc(N(c2ccccc2)c2ccccc2)nc1)NO [Ricolinostat] + N=C(N)NC(=N)NCCc1ccccc1 [Phenformin] (partner 250 µM)
How it was run: as §1

[3] = compound: C1=CC=C(C(=C1)C2=CC=C(C=C2)C3=CSC4=C3C(=C(C(=O)N4)C#N)O)O + Cc1nc(NC(=O)N2CCC[C@H]2C(N)=O)sc1-c1ccnc(C(C)(C)C(F)(F)F)c1 [Alpelisib] (partner 2 µM)
How it was run: as §1

Row | Cell Line | relative viability ([1]; first compound 0.08 µM) | relative viability ([1]; first compound 0.253 µM) | relative viability ([1]; first compound 0.8 µM) | relative viability ([1]; first compound 2.53 µM) | relative viability (TGX 221 + Decitabine; first compound 0.08 µM) | relative viability (TGX 221 + Decitabine; first compound 0.253 µM) | relative viability (TGX 221 + Decitabine; first compound 0.8 µM) | relative viability (TGX 221 + Decitabine; first compound 2.53 µM) | relative viability (TGX 221 + Decitabine; first compound 8 µM) | relative viability ([2]; first compound 0.08 µM) | relative viability ([2]; first compound 0.253 µM) | relative viability ([2]; first compound 0.8 µM) | relative viability ([2]; first compound 2.53 µM) | relative viability ([3]; first compound 0.08 µM) | relative viability ([3]; first compound 0.253 µM) | relative viability ([3]; first compound 0.8 µM) | relative viability ([3]; first compound 2.53 µM) | relative viability ([3]; first compound 8 µM)
1 | SK-MES-1 | 0.277 | 0.34 | 0.304 | 0.293 | 0.397 | 0.365 | 0.373 | 0.395 | 0.36 | 0.597 | 0.599 | 0.678 | 0.672 | 0.863 | 0.985 | 0.96 | 0.782 | 0.675
2 | NCI-H1395 | – | 0.636 | 0.511 | 0.597 | 0.712 | 0.685 | 0.662 | 0.615 | 0.614 | – | 0.48 | 0.425 | 0.463 | – | 1.17 | 1.16 | 1.09 | 0.967
3 | NCI-H2170 | 0.27 | 0.315 | 0.355 | 0.287 | 0.403 | 0.464 | 0.441 | 0.438 | 0.495 | 0.394 | 0.426 | 0.407 | 0.373 | 0.797 | 0.79 | 0.884 | 0.786 | 0.685
4 | NCI-H647 | – | 0.42 | 0.415 | 0.456 | 0.288 | 0.406 | 0.385 | 0.355 | 0.384 | 0.397 | 0.512 | 0.563 | 0.275 | 0.559 | 1 | 1.11 | 1.19 | 1.34
5 | CAL-12T | 0.339 | 0.479 | 0.344 | 0.388 | – | – | – | – | – | 0.489 | 0.548 | 0.559 | 0.517 | – | 1.05 | 0.989 | 1.2 | 0.861
6 | 201T | 0.586 | 0.748 | 0.727 | 0.606 | 0.831 | 0.85 | 0.844 | 0.871 | 0.873 | 0.41 | 0.449 | 0.452 | 0.467 | 1.08 | 1.03 | 1.01 | 1.01 | 1.08
7 | HCC-366 | 0.133 | 0.17 | 0.151 | 0.198 | 0.333 | 0.305 | 0.345 | 0.344 | 0.365 | 0.509 | 0.606 | 0.619 | 0.432 | 0.506 | 0.491 | 0.431 | 0.441 | 0.367
8 | NCI-H1944 | 0.285 | 0.347 | 0.321 | 0.289 | – | 0.449 | 0.442 | 0.443 | 0.389 | 0.181 | 0.18 | 0.174 | 0.151 | 0.806 | 0.952 | 0.888 | 0.856 | 0.864
9 | NCI-H1651 | 0.612 | 0.55 | 0.571 | 0.44 | 0.524 | 0.675 | 0.492 | 0.594 | 0.601 | 0.318 | 0.352 | 0.311 | 0.365 | 0.65 | 1.06 | 1.08 | 1.05 | 0.854
10 | NCI-H1650 | 0.423 | 0.523 | 0.395 | 0.347 | 0.433 | 0.376 | 0.386 | 0.486 | 0.43 | 0.338 | 0.408 | 0.445 | 0.218 | – | – | – | – | –
11 | NCI-H1703 | – | 0.253 | 0.247 | 0.275 | – | – | – | – | – | – | – | – | – | 0.31 | 0.313 | 0.328 | 0.301 | 0.385
12 | NCI-H2228 | 0.309 | 0.407 | 0.355 | 0.24 | – | – | – | – | – | 0.255 | 0.341 | 0.355 | 0.342 | 0.585 | 0.927 | 0.712 | 0.803 | 0.816
13 | SW 900 | – | – | – | – | – | 0.406 | 0.466 | 0.42 | 0.351 | 0.441 | 0.635 | 0.433 | 0.48 | – | – | – | – | –
14 | NCI-H1563 | 0.634 | 0.674 | 0.627 | 0.732 | – | – | – | – | – | 0.596 | 0.647 | 0.685 | 0.671 | 0.783 | 1.03 | 0.991 | 0.832 | 0.998
15 | Calu-6 | 0.898 | 0.91 | 0.795 | 0.648 | – | – | – | – | – | – | – | – | – | 1.15 | 0.993 | 1.11 | 1.01 | 1.09
16 | NCI-H1623 | – | – | – | – | – | – | – | – | – | 0.559 | 0.582 | 0.557 | 0.556 | – | – | – | – | –
17 | EBC-1 | 0.372 | 0.403 | 0.26 | 0.165 | – | – | – | – | – | – | – | – | – | 0.885 | 0.877 | 0.721 | 0.865 | 0.712
18 | NCI-H522 | – | – | – | – | 0.717 | 0.624 | 0.696 | 0.587 | 0.64 | 0.609 | 0.559 | 0.704 | 0.829 | – | – | – | – | –
19 | NCI-H1648 | – | – | – | – | – | 0.554 | 0.499 | 0.474 | 0.523 | – | – | – | – | – | – | – | – | –
20 | IA-LM | 0.234 | 0.35 | 0.308 | 0.316 | – | – | – | – | – | – | – | – | – | 0.549 | 0.879 | 0.626 | 0.75 | 0.374
21 | ChaGo-K-1 | 0.916 | 0.676 | 0.616 | 0.625 | 0.485 | 0.519 | 0.563 | 0.544 | 0.548 | 0.537 | 0.494 | 0.46 | 0.513 | – | – | – | – | –

Source: the supplement of paper PMC10307832
